Experiment [1] concerns the target T1, Sentrin-specific protease 7 (Homo sapiens, UniProt Q9BQF6).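 Further: Luminescence-based dose-response confirmation of ultra-high-throughput screening hits, measuring inhibition of SENP7.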
T1 sequence (Q9BQF6 whole entry): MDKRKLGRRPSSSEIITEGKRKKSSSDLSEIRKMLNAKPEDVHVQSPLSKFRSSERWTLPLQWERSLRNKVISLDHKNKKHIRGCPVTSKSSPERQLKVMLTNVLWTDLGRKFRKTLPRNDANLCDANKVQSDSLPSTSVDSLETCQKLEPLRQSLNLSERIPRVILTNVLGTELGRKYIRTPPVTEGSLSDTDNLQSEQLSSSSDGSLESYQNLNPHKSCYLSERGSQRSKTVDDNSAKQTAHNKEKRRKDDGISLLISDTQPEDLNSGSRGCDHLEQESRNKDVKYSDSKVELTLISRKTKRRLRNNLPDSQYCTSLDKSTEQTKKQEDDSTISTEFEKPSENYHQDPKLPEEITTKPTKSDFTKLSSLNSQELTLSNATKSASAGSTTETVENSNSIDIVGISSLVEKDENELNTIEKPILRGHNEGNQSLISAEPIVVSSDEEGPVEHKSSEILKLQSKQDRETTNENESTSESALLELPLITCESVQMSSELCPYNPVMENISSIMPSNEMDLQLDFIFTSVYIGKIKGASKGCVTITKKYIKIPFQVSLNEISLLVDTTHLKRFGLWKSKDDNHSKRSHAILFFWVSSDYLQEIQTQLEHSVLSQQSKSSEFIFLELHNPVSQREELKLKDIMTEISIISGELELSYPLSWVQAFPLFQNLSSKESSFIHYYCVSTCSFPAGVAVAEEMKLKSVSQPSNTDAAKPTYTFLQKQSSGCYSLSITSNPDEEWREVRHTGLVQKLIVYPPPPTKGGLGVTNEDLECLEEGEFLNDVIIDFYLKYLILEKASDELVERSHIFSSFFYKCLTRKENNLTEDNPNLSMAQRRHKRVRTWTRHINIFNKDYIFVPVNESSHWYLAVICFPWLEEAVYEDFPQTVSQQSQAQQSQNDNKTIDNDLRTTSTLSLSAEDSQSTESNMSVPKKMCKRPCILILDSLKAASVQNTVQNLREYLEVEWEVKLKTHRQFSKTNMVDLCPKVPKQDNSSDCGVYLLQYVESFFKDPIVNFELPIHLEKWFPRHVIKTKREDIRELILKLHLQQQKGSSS
Type of experiment: functional.

The next experiment concerns the target SUMO-activating enzyme (Homo sapiens, UniProt Q9UBT2). Nature of the experiment: blockers of UBC9-mediated SUMO conjugation – biochemical, AlphaScreen, SUMOylation inhibitor project, confirmation (AID 2018). Type of experiment: functional. (In general: In Alpha technology, singlet oxygen from a donor bead excites a nearby acceptor bead.)
For a further experiment, the system named is Escherichia coli. Nature of the experiment: microbe, parasite or virus in culture.
The target in experiment [2] is G2/mitotic-specific cyclin-B1 (Homo sapiens, UniProt P14635). Nature of the experiment: Counterscreen assay for inhibitors of Wee1 degradation: dose response cell-based assay to identify inhibitors of cyclin B degradation. [Related pubchem assays: 1410, 1321 ]. Type of experiment: functional. (A counterscreen serves to expose hits that act by an unwanted route or on another target.)

The target in experiment [3] is Bifunctional protein GlmU (Mycobacterium tuberculosis, UniProt P9WMN3). Nature of the experiment: Inhibitors of Mycobacterial Glucosamine-1-phosphate acetyl transferase (GlmU). Secondary screen. Details: species or system Mycobacterium tuberculosis H37Rv.
The target in another experiment is T2, Orexin receptor type 2 (Homo sapiens, UniProt O43614).
T2 sequence (O43614 whole entry): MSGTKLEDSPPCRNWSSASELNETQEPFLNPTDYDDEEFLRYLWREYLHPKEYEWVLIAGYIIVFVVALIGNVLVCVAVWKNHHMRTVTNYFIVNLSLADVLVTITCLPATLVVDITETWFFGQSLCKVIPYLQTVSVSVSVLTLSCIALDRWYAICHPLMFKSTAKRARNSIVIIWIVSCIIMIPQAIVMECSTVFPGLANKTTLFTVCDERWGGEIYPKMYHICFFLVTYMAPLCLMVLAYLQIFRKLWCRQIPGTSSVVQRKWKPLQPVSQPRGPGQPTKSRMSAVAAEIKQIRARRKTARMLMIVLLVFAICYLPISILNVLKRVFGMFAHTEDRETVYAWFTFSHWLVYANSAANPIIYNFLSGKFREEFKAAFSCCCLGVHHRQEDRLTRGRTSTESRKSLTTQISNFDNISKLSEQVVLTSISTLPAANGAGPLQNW
Nature of the experiment: Counterscreen assay for antagonists of the orexin 1 receptor (OX1R; HCRTR1): Fluorescence-based cell-based dose response assay for antagonists of the orexin 2 receptor (OX2R; HCRTR2), run by assay provider. Type of experiment: functional.

Experiment [4] addresses T3, Ubiquitin-conjugating enzyme E2 N (Homo sapiens, UniProt P61088).
T3 sequence (P61088 whole entry): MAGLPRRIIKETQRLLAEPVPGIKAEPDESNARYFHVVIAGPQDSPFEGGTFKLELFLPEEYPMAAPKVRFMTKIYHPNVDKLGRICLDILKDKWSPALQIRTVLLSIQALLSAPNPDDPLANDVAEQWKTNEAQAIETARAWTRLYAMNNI
Format: functional.

For experiment [5], the system named is HEK293. Nature of the experiment: SAR Analysis of small molecule inhibitors of T-cell specific antigen receptor-induced NF-kB activation in a HEK-293T cell line using a luminescence assay - Set 2. [Related pubchem assays (depositor defined):AID435003, AID435012, AID489026]. The following applies: Homo sapiens. Format: functional, cell-based.
The subject of experiment [6] is HEK293. Nature of the experiment: HEK293T cell viability loss, resazurin readout – resazurin fluorescence, cytotoxicity control for NF-kB activator project, SAR follow-up (AID 493251). Format: functional, cell-based. Particulars: Homo sapiens. (In general: Resazurin is reduced to fluorescent resorufin, in cell work by metabolically active cells.)
Another experiment relates to BJ. Nature of the experiment: cells. Type of experiment: functional, cell-based. The following applies: Homo sapiens.
Experiment [7] deals with T4, Heat shock factor protein 1 (Mus musculus, UniProt P38532).
T4 sequence (P38532 whole entry): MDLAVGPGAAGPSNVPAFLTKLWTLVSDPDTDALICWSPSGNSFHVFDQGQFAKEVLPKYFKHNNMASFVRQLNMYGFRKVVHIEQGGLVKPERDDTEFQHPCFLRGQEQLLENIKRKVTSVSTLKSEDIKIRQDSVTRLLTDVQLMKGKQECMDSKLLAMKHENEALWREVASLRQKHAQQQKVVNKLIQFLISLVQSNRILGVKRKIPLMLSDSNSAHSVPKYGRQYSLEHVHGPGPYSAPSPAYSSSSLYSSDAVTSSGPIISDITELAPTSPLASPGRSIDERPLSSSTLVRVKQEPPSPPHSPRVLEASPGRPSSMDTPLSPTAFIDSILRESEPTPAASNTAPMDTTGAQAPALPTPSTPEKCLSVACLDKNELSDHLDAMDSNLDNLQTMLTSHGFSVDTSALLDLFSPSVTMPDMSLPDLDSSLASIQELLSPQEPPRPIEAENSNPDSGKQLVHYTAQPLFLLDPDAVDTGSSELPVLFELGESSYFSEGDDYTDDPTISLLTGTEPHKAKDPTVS
Nature of the experiment: decrease of HSF1-responsive luciferase luminescence – cell-based, NIH3T3, dose retest, confirmation (AID 2382).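 Further: NIH3T3 fibroblasts with HSF1-driven luciferase reporter stressed by proteasome inhibitor MG132; luminescence from HSF1-driven luciferase expression after 8 hours of MG132 stress.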 Format: functional.

For experiment [8], the target named is Small ubiquitin-related modifier 2 (Homo sapiens, UniProt P61956). Nature of the experiment: SUMO2 binding disruption by SUMO1 hits – biochemical, FRET, human SUMO2, uHTS hits, selectivity assay for SUMO1 interaction inhibitor project, dose response (AID 624384). Format: functional. The following applies: read-out: IC50_Mean.
The nature of experiment [9]: cytotoxicity toward HCT116 cells – cell-based, CellTiter-Glo luminescence, IC50, dose response (AID 1117332). Particulars: HCT-116. Format: functional.

Calls of active or inactive are those of the source.

Bifunctional protein GlmU, sequence (P9WMN3 whole entry): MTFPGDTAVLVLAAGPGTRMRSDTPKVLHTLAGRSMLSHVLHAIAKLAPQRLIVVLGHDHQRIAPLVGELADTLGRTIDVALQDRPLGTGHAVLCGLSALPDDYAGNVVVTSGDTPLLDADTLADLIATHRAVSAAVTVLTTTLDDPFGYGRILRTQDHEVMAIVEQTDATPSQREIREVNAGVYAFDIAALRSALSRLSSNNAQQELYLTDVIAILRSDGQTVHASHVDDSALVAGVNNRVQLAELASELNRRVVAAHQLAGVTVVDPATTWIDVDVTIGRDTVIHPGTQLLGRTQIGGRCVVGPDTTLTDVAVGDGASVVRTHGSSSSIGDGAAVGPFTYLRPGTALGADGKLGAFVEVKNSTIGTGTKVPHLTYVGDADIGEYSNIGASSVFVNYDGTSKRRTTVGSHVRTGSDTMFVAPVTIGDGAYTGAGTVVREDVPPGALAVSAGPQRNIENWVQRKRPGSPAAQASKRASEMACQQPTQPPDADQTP
G2/mitotic-specific cyclin-B1, sequence (P14635 whole entry): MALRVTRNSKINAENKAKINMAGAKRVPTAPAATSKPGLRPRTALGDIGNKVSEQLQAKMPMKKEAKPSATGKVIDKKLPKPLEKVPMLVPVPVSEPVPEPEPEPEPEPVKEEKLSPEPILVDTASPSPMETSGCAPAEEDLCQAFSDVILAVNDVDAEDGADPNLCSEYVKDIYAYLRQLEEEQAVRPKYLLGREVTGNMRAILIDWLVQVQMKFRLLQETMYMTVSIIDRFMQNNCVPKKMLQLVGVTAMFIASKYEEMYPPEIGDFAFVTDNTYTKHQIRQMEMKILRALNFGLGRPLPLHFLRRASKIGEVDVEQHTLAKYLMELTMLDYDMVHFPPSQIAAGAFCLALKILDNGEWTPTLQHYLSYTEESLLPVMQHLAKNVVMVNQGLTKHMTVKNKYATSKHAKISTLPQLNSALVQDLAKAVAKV
Small ubiquitin-related modifier 2, sequence (P61956 whole entry): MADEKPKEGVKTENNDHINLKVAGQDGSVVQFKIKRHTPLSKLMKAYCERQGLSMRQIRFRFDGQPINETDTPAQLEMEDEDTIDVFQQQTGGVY
SUMO-activating enzyme, sequence (Q9UBE0 whole entry): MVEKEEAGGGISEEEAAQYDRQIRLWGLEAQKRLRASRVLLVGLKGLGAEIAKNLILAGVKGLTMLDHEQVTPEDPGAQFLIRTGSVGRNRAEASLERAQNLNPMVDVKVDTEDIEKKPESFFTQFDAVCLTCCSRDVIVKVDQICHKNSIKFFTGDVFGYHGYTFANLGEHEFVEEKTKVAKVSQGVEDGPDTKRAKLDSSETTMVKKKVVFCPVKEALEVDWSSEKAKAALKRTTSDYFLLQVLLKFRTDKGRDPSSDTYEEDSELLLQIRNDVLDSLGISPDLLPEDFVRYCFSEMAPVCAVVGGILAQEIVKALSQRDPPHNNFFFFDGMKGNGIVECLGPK
SUMO-activating enzyme, sequence (Q9UBT2 whole entry): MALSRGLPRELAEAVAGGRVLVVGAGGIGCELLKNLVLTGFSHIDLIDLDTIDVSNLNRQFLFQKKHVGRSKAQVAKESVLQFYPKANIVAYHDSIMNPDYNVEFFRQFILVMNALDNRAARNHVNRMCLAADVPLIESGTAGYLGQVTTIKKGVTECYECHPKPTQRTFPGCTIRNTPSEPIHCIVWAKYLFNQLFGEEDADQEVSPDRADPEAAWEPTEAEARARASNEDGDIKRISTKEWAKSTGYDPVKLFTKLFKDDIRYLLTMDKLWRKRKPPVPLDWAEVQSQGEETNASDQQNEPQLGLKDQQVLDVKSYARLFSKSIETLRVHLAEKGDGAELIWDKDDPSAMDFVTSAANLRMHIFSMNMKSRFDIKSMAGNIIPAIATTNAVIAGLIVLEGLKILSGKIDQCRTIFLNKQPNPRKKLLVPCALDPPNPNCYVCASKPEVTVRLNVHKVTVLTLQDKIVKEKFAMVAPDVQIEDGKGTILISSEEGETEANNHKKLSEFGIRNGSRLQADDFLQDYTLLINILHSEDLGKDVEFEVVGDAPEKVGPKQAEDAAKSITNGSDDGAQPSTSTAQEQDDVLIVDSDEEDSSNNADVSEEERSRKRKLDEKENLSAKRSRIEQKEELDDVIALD

As to `N#Cc1c(N2CCCCC2)nc(N)c2c(N)nc(SCC(=O)O)cc12`, the IC50 in experiment [1] is 11.8 µM (active); on SUMO-activating enzyme it was 0.86 µM (active).

One may read the AC50 as the midpoint of the concentration-response curve, whichever way the signal moves. The EC50 is the concentration that produces a half-maximal response. Turning to `O=[N+]([O-])c1ccc(Sc2cccc[n+]2[O-])c2nonc12`, the half-maximal activity concentration (AC50) in the experiment on Escherichia coli was 5.53 µM (active). In addition, the EC50 in [2] is reported as > 49.7 µM (not active). Moreover, the IC50 in experiment [3] is 72.6 µM (active).

Consider `Oc1ccc(NC(=S)N=Nc2c(O)[nH]c3ccccc23)cc1`, for which the results for the IC50 (on Orexin receptor type 2; in [4]) were > 88.8 µM (inactive) and 0.763 µM (active), respectively.

Consider `CCCC(=O)NC(c1ccc(C(C)C)cc1)c1ccc2cccnc2c1O` (stereo not drawn), for which the IC50 in the experiment with HEK293 [5] was 3.76 µM (active); with HEK293 [6] it was 24.8 µM (inactive). In addition, the results for the EC50 (with BJ; in experiment [7]) were 2.91 µM (active) and 1.63 µM (active), respectively.

On to `Oc1c(Cl)cc(Cl)c(Cl)c1Cc1c(O)c(Cl)cc(Cl)c1Cl` [HEXACHLOROPHENE], for which the IC50 in [8] is 15.8 µM (active); in experiment [9], 0.0312 µM (active).

The values are drawn from ChEMBL document CHEMBL1201862, “PubChem BioAssay data set” (2004).
